According to patent publication US20250090545A1, “METHODS AND COMPOSITIONS FOR TREATMENT OF PERIPHERAL NEUROPATHIES” (UNIVERSITY OF MANITOBA, priority 2013, published 2025):

Assays:
[1] = test system: adult sensory neuron cultures from STZ-induced diabetic rats; experiment: Mitochondrial respiration (OCR) in adult sensory neuron cultures; assay type: cell-based, rat; conditions: 1 μM for 3 h
Protocol: Mitochondrial respiration in adult mouse sensory neuron cultures from wild type control mice, M1 receptor knockout mice (M1R KO), and from diabetic mice that received dosing with 1 μM of VU0255035 for 3 h, were assessed following the methods taught by Roy Chowdhury et al. (2012). The M1R knockout mice were a gift from Dr. Jurgen Wess (Molecular Signaling Section, Laboratory of Bioorganic Chemistry, National Institute of Diabetes and Digestive and Kidney Diseases, National Institutes of Health).
This bioenergetics parameter, which is depressed in diabetes, is related to the capacity of cells to conduct respiration under conditions of stress or high ATP demand. In this regard we propose the stress is the presence of high intracellular glucose concentrations.

[2] = biological target: T1, type 1 muscarinic receptor (M1R) (Homo sapiens, UniProt P11229); conditions: cited from earlier work
T1 sequence (P11229 1-460): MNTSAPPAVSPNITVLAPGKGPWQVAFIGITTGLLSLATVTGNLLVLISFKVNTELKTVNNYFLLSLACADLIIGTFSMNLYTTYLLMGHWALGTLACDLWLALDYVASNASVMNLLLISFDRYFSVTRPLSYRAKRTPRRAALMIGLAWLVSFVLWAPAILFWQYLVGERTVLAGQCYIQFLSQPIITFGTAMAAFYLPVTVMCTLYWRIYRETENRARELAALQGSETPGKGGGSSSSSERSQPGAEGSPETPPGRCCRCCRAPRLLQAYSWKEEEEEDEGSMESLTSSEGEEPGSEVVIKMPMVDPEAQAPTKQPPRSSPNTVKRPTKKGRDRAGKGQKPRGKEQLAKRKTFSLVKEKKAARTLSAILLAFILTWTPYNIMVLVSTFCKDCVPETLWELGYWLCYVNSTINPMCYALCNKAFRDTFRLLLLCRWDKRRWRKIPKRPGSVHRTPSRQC

[3] = test system: STZ-induced diabetic rats; experiment: Motor and sensory nerve conduction velocity in STZ-induced diabetic rats; assay type: in vivo, rat; conditions: 5 mg/kg s.c., 8 weeks; p<0.05 vs vehicle-treated diabetic rats
Protocol: The STZ rat is a model of type 1 diabetes. Rats were treated with 5 mg/kg (s.c.) pirenzepine for 8 weeks following the method taught by Calcutt et al. (2003, Therapeutic efficacy of sonic hedgehog protein in experimental diabetic neuropathy. J. Clin. Invest. 111:507-514). Nerve conduction velocities (NCV) were determined following the methods taught by Mizisin et al. (2004, Ciliary Neurotrophic Factor Improves Nerve Conduction and Ameliorates Regeneration Deficits in Diabetic Rats. Diabetes 53:1807-12). […] All data are group mean±SEM (N=5-6 group). Statistical analysis by one-way ANOVA with Dunnett's post-hoc test.

[4] = test system: AMP-activated protein kinase (AMPK); experiment: AMPK phosphorylation (Western blot) in cultured adult sensory neurons; assay type: cell-based, rat; conditions: 1.0 μM, 15-60 min
Protocol: Subsets of cultured adult sensory neurons derived from age-matched control rats or 3-5 month STZ-induced diabetic rats were treated with a 1.0 μM pirenzepine-HCl dosage. The first subset was processed immediately while the second, third and fourth subsets of the neurons from the control rats and the diabetic rats were processed after 15 min, after 30 min, and after 60 min respectively following treatment with pirenzepine. The cell cultures were lysed and then used to prepare Western blots which were then probed with antibodies against phosphorylated AMPK (P-AMPK), total AMPK (T-AMPK) and total ERK (T-ERK). […] Values are means±SEM, N=3/group. Statistical significance was analyzed using one-way ANOVA with Tukey's post-hoc test.

[5] = test system: adult sensory neuron cultures derived from STZ-induced diabetic rats; experiment: Neurite outgrowth in sensory neuron cultures transduced with dominant negative AMPK mutants; assay type: cell-based, rat; conditions: 1.0 μM pirenzepine; adenovirus dominant negative AMPK mutants AdDN1/AdDN2
Protocol: Adult sensory neuron cultures derived from STZ-induced diabetic rats were transduced for two days after treatment with 1.0 μM pirenzepine, with two adenovirus over-expressing dominant negative mutants of AMPK, i.e., AMPK subunit α1 and α2 mutants named “AdDN1” and “AdDN2” (the adenovirus over-expressing dominant negative mutants were gifts from Dr. Jason Dyck, University of Alberta) following the procedure taught by Roy Chowdhury et al., (2012).

PGC-1α = PGC-1α transcriptional activity, luciferase reporter in adult sensory neurons; assay type: cell-based, rat; conditions: 1 μM; neurons from STZ-induced diabetic rats
Protocol: PGC-1α transcriptional activity was determined in dissociated adult sensory neurons derived from STZ-induced diabetic rats by transfection for two days with luciferase-based reporter plasmids by following the methods taught in the AMAXA® NUCLEOFECTOR® II Manual (www.amaxa.com; AMAX and NUCLEOFECTOR are registered trademarks of Amaxa GmBH Corp., Koln, Fed. Rep. Germany) and by Saleh et al. (2013, Ciliary neurotrophic factor activates NF-κB to enhance mitochondrial bioenergetics and prevent neuropathy in sensory neurons of streptozotocin-induced diabetic rodents. Neuropharmacology 65:65-75) (the luciferase-based reporter plasmids were a gift from Dr. Michael Czubryt, University of Manitoba).

[6] = test system: adult sensory neurons from normal rats; experiment: Neurite outgrowth of sensory neurons exposed to paclitaxel or oxaliplatin; assay type: cell-based, rat; conditions: 24 hours, pirenzepine 0.1, 1.0 or 10 μM
Protocol: Adult sensory neurons from normal rats were cultured for 24 hours in the presence of(A) paclitaxel (PX; 0.1 μM or 0.3 μM), or (B) oxaliplatin (OX; 3.0 μM). From time of plating some cultures were treated with 0.1, 1.0 or 10 μM pirenzepine (PZ). Levels of total neurite outgrowth were determined and presented as means±SEM, N=6-8/group. Significant differences were assessed in(A) by t-test, and in(B) by one-way ANOVA with Dunnett's post-hoc test.

[7] = test system: paclitaxel-treated Swiss Webster mice; assay type: in vivo, mouse; conditions: pirenzepine daily s.c. for 4 weeks (10 mg/kg/day, also printed 1 mg/kg/day)
Protocol: Swiss Webster mice were treated with paclitaxel (taxol; 5 mg/kg on days 1,3,5 and 7) to induce peripheral neuropathy. […] Data points are group mean of n=9-12/group±SEM. Significant differences were determined with a oneway ANOVA followed by Dunnett's post-hoc test.

[8] = test system: cultured adult rat sensory neurons; assay type: cell-based; conditions: 1 μM; gp120 24 hours; P<0.05
Protocol: To further extend our investigation of the actions of muscarinic receptor antagonists on nerve growth, cultured adult rat sensory neurons were treated for 24 hours with recombinant gp120, an external coat protein of HIV that causes toxicity to sensory neurons in HIV neuropathy (FIG. 24). This toxicity leads to axon degeneration and neuronal cell death. Cultures were treated with 1 μM pirenzpeine and total neurite outgrowth determined. […] Values are means±SEM. n=6.

[9] = test system: DCA-treated Swiss Webster mice; conditions: pirenzepine 10 mg/kg/day s.c.
Protocol: Swiss Webster mice were treated with DCA (1 mg/kg/day s.c.) for 8 weeks to induce peripheral neuropathy following the method described for rats by Calcutt et al. (2009, Peripheral neuropathy in rats exposed to dichloroacetate. J. Neuropath. Exp. Neurol. 68:985-93). Some DCA-treated mice were also treated with pirenzepine (Pz: 10 mg/kg/day s.c.) for the duration of the study while others were treated with vehicle alone.

| Structure (SMILES) | coupling efficiency [1] | oxygen consumption rate (OCR) [1] | respiratory control ratio [1] | spare respiratory capacity ([1]; compared to controls) | selectivity to M1R relative to M2, M3, M4 and M5 receptors [2] [times] | motor nerve conduction velocity (MNCV) slowing [3] | sensory nerve conduction velocity (SNCV) slowing [3] | P-AMPK level ([4]; cultures from normal (age-matched control) rats) | P-AMPK level ([4]; cultures from type 1 (STZ) diabetic rats) | pirenzepine-induced neurite outgrowth under blockage of AMPK signaling [5] | transcriptional activity of PGC-1α (PGC-1α) | reduced neurite outgrowth caused by oxaliplatin ([6]; oxaliplatin 3.0 μM) | reduced neurite outgrowth caused by paclitaxel ([6]; paclitaxel 0.1 or 0.3 μM) | tactile allodynia (paw 50% tactile response threshold) [7] | thermal hyperalgesia (paw thermal response latency) [7] | protection from gp120-induced neurite degeneration [8] | depletion of paw skin IENF ([9]; 8 weeks) | paw thermal hypoalgesia ([9]; 8 weeks) | onset of MNCV slowing ([9]; after 4 weeks of exposure) |
| --- | --- | --- | --- | --- | --- | --- | --- | --- | --- | --- | --- | --- | --- | --- | --- | --- | --- | --- | --- |
| O=C(CCNS(=O)(=O)c1cccc2nsnc12)N1CCN(c2ccncc2)CC1 [VU0255035] | not dissimilar | increased | not dissimilar | significantly increased | 75 | – | – | – | – | – | – | – | – | – | – | – | – | – | – |
| CN1CCN(CC(=O)N2c3ccccc3C(=O)Nc3cccnc32)CC1 [pirenzepine] | – | – | – | – | – | attenuated | attenuated | significantly activated | significantly activated | completely inhibited | enhanced | prevented | prevented | prevented | prevented | complete protection | prevented | prevented | delayed onset |
